Measured values as given in publication PMC11247486, “Improving the In Vivo Stability of [^52Mn]Mn(II) Complexes with 18-Membered Macrocyclic Chelators for PET Imaging” (Journal of Medicinal Chemistry, 2024).

How the values were obtained:
[1] = Cyclic voltammetry of the Mn(II) complexes; assay type: physicochemical; settings: for peak-to-peak separation (ΔEp): 2 mM complex, pH ∼ 6.5
Experimental: Cyclic voltammetry experiments were performed with Mn-PYAN and Mn-CHXPYAN, using aqueous solutions with a complex concentration of 2 mM, containing 0.15 M NaCl as the supporting electrolyte (pH ∼ 6.5). The cyclic voltammograms obtained (Figure 3) show well-defined anodic and cathodic waves due to the Mn(II)/Mn(III) pair, which are characteristic of reversible or quasi-reversible processes. At the lowest scan rate (20 mV/s), the peak-to-peak separation (ΔEp) is slightly smaller for Mn-CHXPYAN than for Mn-PYAN, with values of 73 and 80 mV, respectively. When increasing the scan rate, ΔEp increases slightly, with values of 85 and 102 mV, respectively, at the highest scan rate (500 mV/s). This situation is characteristic of electrochemically quasi-reversible processes, although for Mn-CHXPYAN, the values of ΔEp are lower and present less variation with the scan rate.
This is likely related to ligand field effects due to the more symmetrical octahedral coordination around the metal ion in Mn-CHXPYAN than in Mn-PYAN, as evidenced by the shape measures mentioned above (Table S1, Supporting Information).[37] Indeed, high-spin Mn(III) complexes often display Jahn–Teller distorted octahedral coordination, while high-spin Mn(II) complexes lack any LFSE.[38],[39] The E1/2 values of 652 and 567 mV vs Ag/AgCl (3 M KCl) correspond to 862 and 777 mV vs NHE for Mn-PYAN and Mn-CHXPYAN, respectively.[40]
Cyclic voltammetry measurements were performed with a three-electrode configuration on an Autolab PGSTAT302 M potentiostat-galvanostat. A glassy-carbon disk (Metrohm 61204600) was used as the working electrode. The surface of this electrode was polished with α-Al2O3 (0.3 μm) and washed with distilled water before every measurement. The reference electrode used was a Ag/AgCl reference electrode filled with 3 M KCl (Metrohm 6.0726.100). A Pt wire was used as the counter electrode. The complex solutions (2 mM) containing […] were deoxygenated by bubbling nitrogen before each measurement.

[2] = protonation constant of the complex, KMnLH = [MnHL]/[MnL] × [H^+]; cited from earlier work
[3] = scan rate 500 mV/s, 0.15 M NaCl
[4] = vs Ag/AgCl (3 M KCl), 0.15 M NaCl

Structure (SMILES) | peak-to-peak separation (ΔEp) ([1]; scan rate 20 mV/s, 0.15 M NaCl) [mV] | peak-to-peak separation (ΔEp) [1, 3] [mV] | half wave potential (E1/2) [1, 4] [mV] | half wave potential (E1/2) ([1]; vs NHE) [mV] | log KMnLH [2]
[Mn+2].c1cc2nc(c1)CNCCNCc1cccc(n1)CNCCNC2 [Mn-PYAN] | 80 | 102 | 652 | 862 | 5.19
[Mn+2].c1cc2nc(c1)CN[C@@H]1CCCC[C@H]1NCc1cccc(n1)CN[C@@H]1CCCC[C@H]1NC2 [Mn-CHXPYAN] | 73 | 85 | 567 | 777 | –
